Results reported in patent publication US4868159A, “Novel substances KS-501 and KS-502 and process for their preparation” (Kyowa Hakko Kogyo Co., Ltd., priority 1987, dated 1989).
In brackets after ≈: the same amount, converted by molar mass. Entries after “also recorded” stand apart in the source; their conditions may differ. Where two headings read alike, the source gives them in different places.

Experiments:
rabbit platelets [1] = test: Effect on platelet aggregation of rabbit platelets; type: cell-based, white rabbit; conditions: for IC50: Oryctolagus cuniculus, Platelet, 37° C., read-out: IC50 (concentration of the test compound showing 50% inhibition), platelet aggregation
Description: Effect on platelet aggreation of rabbit platelets
8.5 vol of blood was sampled from the carotid artery of a white rabbit and placed in a FALCON 2070 tube (product of Falcon, Bector Dickinson) containing 1.5 vol of citrate-dextrose soluton (71 mM citric acid, 85 mM sodium citrate and 111 mM dextrose). The thus obtained blood was centrifuged at 200×g for 15 minutes to obtain PRP. This PRP was centrifuged at 650×g for 10 minutes to obtain platelet precipitates. After washing with Ca^++ -free Tyrode's solution containing 2 mM ethyleneglycol bis(2-aminoethylether) tetraacetic acid (EGTA), the platelet precipitates were again centrifuged at 650 ×g for 10 minutes and washed. The thus obtained platelet precipitates were suspended in Ca^++ -free Tyrode's solution containing 0.25% bovine serum albumin to reach a density of 5×10^8 cells/ml. After the washed platelet suspension was allowed to stand at room temperature for about 30 minutes, 1 mM CaCl2 or 1 mM EGTA was added thereto and the mixture was allowed to stand for further 30 minutes. Then, platelet aggregation was measured.
The aggregation of platelets was determined using an aggregometer, AGGRETEC TE-500 (product of Erma Optical Co., Ltd.) to which the Born method was applied.
First, 10 μl of a test compound soluton was added to 0.2 ml of the washed platelet suspension, while stirring at 1,000 rmp and at 37° C. After incubation at 37° C. for 3 minutes, 10 μl of thrombin (final concentration: 0.05 U/ml) or platelet activating factor (final concentration: 10^-10 M) was added as a stimultant to initiate the reaction. The rate of inhibition of platelet aggregation of the test compound was calculated from the maximum aggregation rate obtained by the use of the test compound and the maximum aggregation rate obtained by the use of only the solvent used for dissolving the test compound, according to the following equation. [formula] A : Maximum aggregation rate of the solvent alone B : Maximum aggregation rate of the test compound
*Concentration of the test compound showing 50% inhibition.

Solubility = type: physicochemical
rabbit platelets [2] = test: Effect on serotonin release from rabbit platelets; type: cell-based, white rabbit; conditions: for inhibition at 10 µg/mL: 10.0 μg/ml; for inhibition at 30 µg/mL: 30.0 μg/ml
Description: Effect on serotonin release from rabbit platelets
9.25 vol of blood was sampled from the carotid artery of a white rabbit and placed in a FALCON 2070 tube (product of Falcon, Bector Dickinson) containing 0.75 vol of 77 mM ethylenediaminetetraacetic acid (EDTA). The thus obtained blood was centrifuged at 200 x g for 15 minutes to obtain platelet rich plasma (referred to as PRP hereinafter). This PRP was incubated with [2-^14 C]-serotonin (2 μCi/100 ml PRP) at 37° C. for an hour to incorporate [2-^14 C]-serotonin therein. Then, the PRP was centrifuged at 650 x g for 15 minutes to obtain platelet precipitates. After washing with Tris-buffered physiological saline (pH 7.4, containing 1 mM EDTA), the platelet precipitates were suspended in CA^++ -free Tyrode's soluton to reach a final density of 10^9 cells/ml.
To 0.475 ml of the thus prepared [2-^14 C]-serotoninlabeled platelet suspension was added 5 μl of a solution of the test compound. After incubation at 37° C. for 3 minutes, platelet activating factor (final concentration: 10^-9 M) was added as a stimulant, followed by incubation for further 3 minutes. 0.3 ml of the reaction solution was immediately taken and poured into 30 µl of ice-cold 0.1 mM formaldehyde5mM EDTA solution to terminate the reaction. After centrifugation at 3,000 rpm at 0° C. for 10 minutes, 250 μl of the supernatant was taken and the radioactivity was measured with a liquid scintillation counter.
*The rate of inhibition of serotonin release was calculated according to
the following equation.

[3] = hexane, carbon tetrachloride, benzene, neutral water, acidic water
[4] = Oryctolagus cuniculus, stimulant platelet activating factor 10^-9 M, 37° C., read-out: Rate of inhibition of serotonin release

**Q.** Which “Inhibition of platelet aggregation (in words)” value (rabbit platelets [1]) does the source give for CCCCCCCc1cc(O)cc(OC(=O)c2c(CCCCCCC)cc(O)cc2OC2OC(C(O)CO)C(O)C2O)c1 (stereo not drawn) [KS-501] here?
**A.** Its value is “inhibitory activity on platelet aggregation; also recorded: inhibited platelet aggregation stimulated with thrombin and platelet activating factor”.

**Q.** And the IC50 (rabbit platelets [1]; stimulant platelet activating factor, final concentration 10^-10 M)?
**A.** Its IC50 is 38 µg/mL (≈ 62.8 µM).

**Q.** And the IC50 (rabbit platelets [1]; stimulant thrombin, final concentration 0.05 U/ml)?
**A.** Its IC50 is 57 µg/mL (≈ 94.3 µM).

**Q.** And the Solubility (Solubility; KS-501: chloroform, ethyl acetate, acetonitrile, methanol, n-butanol, acetone, tetrahydrofuran, dioxane, dimethylsulfoxide, pyridine, monoethanolamine, acetic acid, alkaline water)?
**A.** The Solubility was “Readily soluble”.

**Q.** And the Solubility (Solubility; [3])?
**A.** The Solubility was “Insoluble”.

**Q.** And the “Inhibition of serotonin release from platelets (in words)” value (rabbit platelets [2])?
**A.** The value was “inhibitory activity on serotonin release from platelets; also recorded: inhibited serotonin release from rabbit platelets, depending on the concentration”.

**Q.** What about the inhibition at 3 µg/mL (rabbit platelets [2]; Oryctolagus cuniculus, 3.0 μg/ml, stimulant platelet activating factor 10^-9 M, 37° C., read-out: Rate of inhibition of serotonin release) of the same molecule?
**A.** The inhibition at 3 µg/mL was 10.2%.

**Q.** What about the inhibition at 10 µg/mL (rabbit platelets [2]; [4]) of the same molecule?
**A.** The inhibition at 10 µg/mL was 27.1%.

**Q.** What about the inhibition at 30 µg/mL (rabbit platelets [2]; [4]) of the same molecule?
**A.** Its inhibition at 30 µg/mL is 66.4%.

**Q.** With CCCCCCCc1cc(OC(=O)c2c(CCCCCCC)cc(O)cc2OC2OC(C(O)CO)C(O)C2O)cc(O)c1C(=O)O (stereo not drawn) [KS-502] as the molecule, how does the Solubility (Solubility; KS-502: chloroform, ethyl acetate, acetonitrile) read?
**A.** Its Solubility is “Soluble”.

**Q.** What about the Solubility (Solubility; [3]) of the same molecule?
**A.** Its Solubility is “Insoluble”.

**Q.** What about the “Inhibition of serotonin release from platelets (in words)” value (rabbit platelets [2]) of the same molecule?
**A.** Its value is “inhibitory activity on serotonin release from platelets; also recorded: inhibited serotonin release from rabbit platelets, depending on the concentration”.

**Q.** What about the inhibition at 10 µg/mL (rabbit platelets [2]; [4]) of the same molecule?
**A.** The inhibition at 10 µg/mL was 2.7%.

**Q.** What about the inhibition at 30 µg/mL (rabbit platelets [2]; [4]) of the same molecule?
**A.** Its inhibition at 30 µg/mL is 28.9%.

**Q.** And the inhibition at 50 µg/mL (rabbit platelets [2]; Oryctolagus cuniculus, 50.0 μg/ml, stimulant platelet activating factor 10^-9 M, 37° C., read-out: Rate of inhibition of serotonin release)?
**A.** Its inhibition at 50 µg/mL is 51.4%.
